14 compounds from patent publication US7897602B2, “Indolinone compounds as kinase inhibitors” (Development Center for Biotechnology, priority 2009, dated 2011) can be followed below.

Holding throughout (type): biochemical
Assay [1] addresses T1, Aurora A kinase (Homo sapiens, UniProt O14965).
T1 construct: purchased Upstate
T1 sequence (O14965 1-403): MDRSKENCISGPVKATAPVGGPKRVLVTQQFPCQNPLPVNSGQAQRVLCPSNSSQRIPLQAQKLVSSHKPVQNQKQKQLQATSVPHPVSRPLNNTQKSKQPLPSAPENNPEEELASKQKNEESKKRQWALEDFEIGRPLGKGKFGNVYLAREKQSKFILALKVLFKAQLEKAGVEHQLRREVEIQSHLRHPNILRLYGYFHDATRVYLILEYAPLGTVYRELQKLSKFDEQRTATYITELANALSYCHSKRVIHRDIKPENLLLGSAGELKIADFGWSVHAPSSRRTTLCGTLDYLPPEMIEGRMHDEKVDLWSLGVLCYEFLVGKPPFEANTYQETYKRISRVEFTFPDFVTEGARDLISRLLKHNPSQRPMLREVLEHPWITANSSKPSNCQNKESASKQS
As to the kind of experiment: Aurora A kinase assay ([γ-33P]ATP, CHOCKtide substrate). The note with it: for inhibition at 1 µM: 1.0 μM test compound. In outline:
(§1)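 Radiometric filter-binding format: 33P incorporation into CHOCKtide counted after acid stop and filtration. Reactions ran 30 min at 33 °C, Aurora A with 10 μM ATP, Aurora B with 40 μM ATP. IC50 taken as concentration giving half-maximal kinase inhibition.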

The target of assay [2] is T2, Aurora B kinase (Homo sapiens, UniProt Q96GD4).
T2 construct: purchased Cell signaling
T2 sequence (Q96GD4 whole entry): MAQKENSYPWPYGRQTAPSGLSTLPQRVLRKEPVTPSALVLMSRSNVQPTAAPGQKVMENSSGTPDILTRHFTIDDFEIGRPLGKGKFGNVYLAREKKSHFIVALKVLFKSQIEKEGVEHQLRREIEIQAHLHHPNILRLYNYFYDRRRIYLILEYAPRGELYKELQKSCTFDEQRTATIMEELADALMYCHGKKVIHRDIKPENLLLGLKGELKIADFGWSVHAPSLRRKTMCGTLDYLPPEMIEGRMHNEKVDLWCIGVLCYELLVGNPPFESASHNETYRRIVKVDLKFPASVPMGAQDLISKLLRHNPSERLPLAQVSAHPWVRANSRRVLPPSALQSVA
The assay is described as follows: Aurora B kinase assay ([γ-33P]ATP, CHOCKtide substrate). The note with it: 1.0 μM test compound. In a few lines: as §1

Assay [3] has as its target T3, c-Met kinase (Homo sapiens, UniProt P08581).
T3 construct: recombinant N-terminal 6×His-tagged c-Met kinase domain construct expressed from baculovirus; 6xHis (N); made in house
As to the kind of experiment: c-Met kinase assay (33P incorporation into Poly(Glu-Tyr)). The note with it: 500 nM test compound. In a few lines: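 Single-concentration test (500 nM compound) at 30° C for 30 min, pH 7.0 MOPS buffer with 100 μM ATP and [33P]-γ-ATP. Enzyme was baculovirus-expressed 6×His c-Met kinase domain (5 ng), substrate Poly(Glu-Tyr) 4:1. Inhibition percentage derived from filter-bound counts relative to DMSO control.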

For assay [4], the target named is T4, Flt3 kinase (Homo sapiens, UniProt P36888).
T4 construct: recombinant N-terminal 6×His-tagged Flt3 kinase domain construct expressed from baculovirus; 6xHis (N); made in house
T4 sequence (P36888 610-943 limits assumed): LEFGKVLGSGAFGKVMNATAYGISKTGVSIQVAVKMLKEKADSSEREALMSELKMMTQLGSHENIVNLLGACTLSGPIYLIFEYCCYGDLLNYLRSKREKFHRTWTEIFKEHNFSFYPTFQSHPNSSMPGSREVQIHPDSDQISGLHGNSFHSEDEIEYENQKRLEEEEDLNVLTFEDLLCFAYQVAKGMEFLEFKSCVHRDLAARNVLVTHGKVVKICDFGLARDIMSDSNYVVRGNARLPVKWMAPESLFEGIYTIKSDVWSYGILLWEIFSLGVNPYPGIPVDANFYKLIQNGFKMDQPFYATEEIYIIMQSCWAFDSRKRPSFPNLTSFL
The assay is described as follows: Flt3 kinase assay (33P incorporation into Poly(Glu-Tyr)). The note with it: 100 nM test compound; read-out: Inhibition at 100 nM (%) Flt-3. The method, then: Inhibition of Flt3 kinase activity by compounds disclosed herein was quantified by measuring the amount of [^33P] incorporated into the substrate in the presence of a test compound. Briefly, a reaction mixture of 25 μL final volume containing 5 ng of Flt3 kinase (obtained by purifying recombinant N-terminal 6×His-tagged Flt3 kinase domain construct expressed from baculovirus), 5 μg of the substrate (Poly (Glu-Tyr, 4:1, Sigma)), kinase reaction buffer (20 mM MOPS pH 7.0, 1 mM EDTA, 5% glycerol, 0.01% Brij-35, 0.1% β-mercaptoethanol, 1 mg/mL BSA, 100 μM ATP, 0.1 μCi per well [^33P]-γ-ATP (2,500-3,000 Ci/mmol)), and a test compound (100 nM, diluted with 4% DMSO) or DMSO (as the control) was incubated at 30° C. for 30 minutes. The reaction was stopped by adding 5 μL of 3% phosphoric acid solution. The resultant reaction solution was then harvested onto a filter plate (UniFilter-96 GF/B, PerkinElmer), washed 20 times for 5 min with d.d. H2O, and followed by the addition of 30 μL of MicroScint™-20 Cocktail (PerkinElmer). The plate was then sealed and counted using a TopCount scintillation detector (PerkinElmer). The percentage of inhibition rate of the test compound was calculated by dividing the retained radioactivity of the test sample with the retained radioactivity of the control sample and shown in Table 3.

T3 sequence (P08581 1078-1345 limits assumed): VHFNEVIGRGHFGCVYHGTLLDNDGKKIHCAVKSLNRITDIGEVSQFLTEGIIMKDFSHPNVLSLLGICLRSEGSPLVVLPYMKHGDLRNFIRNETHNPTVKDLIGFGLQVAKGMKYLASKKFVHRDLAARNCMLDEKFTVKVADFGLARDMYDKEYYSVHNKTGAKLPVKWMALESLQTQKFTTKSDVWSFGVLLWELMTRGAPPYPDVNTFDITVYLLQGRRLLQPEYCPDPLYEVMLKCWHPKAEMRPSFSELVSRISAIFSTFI

As for `CCOC(=O)CCc1c(/C=C2\C(=O)Nc3cc(-c4ccc(O)cc4)ccc32)[nH]c2c1C(=O)CCCC2` [DCB-70150, (Z)-ethyl 3-(2-((6-(4-hydroxyphenyl)-2-oxoindolin-3-ylidene)methyl)-4-oxo-1,4,5,6,7,8-hexahydrocyclohepta[b]pyrrol-3-yl)propanoate], the inhibition at 1 µM in assay [1] came out at 8.9%; in assay [2] it was 18%. The inhibition at 0.5 µM in assay [3] turned out to be 0.2%. Moreover, in assay [4], the inhibition at 0.1 µM was found to be 17.1%.

`O=C(O)CCc1c(/C=C2\C(=O)Nc3cc(-c4ccc(O)cc4)ccc32)[nH]c2c1C(=O)CCCC2` [DCB-70151, (Z)-3-(2-((6-(4-hydroxyphenyl)-2-oxoindolin-3-ylidene)methyl)-4-oxo-1,4,5,6,7,8-hexahydrocyclohepta[b]pyrrol-3-yl)propanoic acid]: the inhibition at 1 µM stood at 37.2% in assay [1] and 23.6% in assay [2]. Moreover, the inhibition at 0.5 µM in assay [3] is -6.5%. Moreover, in assay [4], the inhibition at 0.1 µM amounted to 42.2%.

On to `CC(=O)c1c(C)[nH]c(/C=C2\C(=O)Nc3ccc(S(=O)(=O)Cc4c(Cl)cccc4Cl)cc32)c1CCC(=O)O` [DCB-70202, (Z)-3-(4-acetyl-2-((5-(2,6-dichlorobenzylsulfonyl)-2-oxoindolin-3-ylidene)methyl)-5-methyl-1H-pyrrol-3-yl)propanoic acid], for which the inhibition at 1 µM in assay [1] stood at 40.2%; in assay [2], 7.3%. Further, in assay [3], the inhibition at 0.5 µM stood at 85.2%.

On to `CC(=O)c1c(C)[nH]c(/C=C2\C(=O)Nc3ccc(S(=O)(=O)Cc4c(Cl)cccc4Cl)cc32)c1CCC(=O)N1CCN(C)CC1` [DCB-70205, (Z)-3-((4-acetyl-5-methyl-3-(3-(4-methylpiperazin-1-yl)-3-oxopropyl)-1H-pyrrol-2-yl)methylene)-5-(2,6-dichlorobenzylsulfonyl)indolin-2-one], for which the inhibition at 1 µM stood at 11.3% in assay [1] and 2.4% in assay [2]. The inhibition at 0.5 µM in assay [3] worked out at 97%.

With `CC(=O)c1c(C)[nH]c(/C=C2\C(=O)Nc3ccc(S(=O)(=O)N4CCc5ccccc54)cc32)c1CCC(=O)N1CCN(C)CC1` [DCB-70206, (Z)-3-((4-acetyl-5-methyl-3-(3-(4-methylpiperazin-1-yl)-3-oxopropyl)-1H-pyrrol-2-yl)methylene)-5-(indolin-1-ylsulfonyl)indolin-2-one], the figures for the inhibition at 1 µM in assay [1] and in assay [2] were 37.4% and 21.1%, respectively. Further, in assay [3], the inhibition at 0.5 µM worked out at 77.4%.

Regarding `CC(=O)c1c(C)[nH]c(/C=C2\C(=O)Nc3ccc(F)cc32)c1CCC(=O)N1CCN(C)CC1` [DCB-70207, (Z)-3-((4-acetyl-5-methyl-3-(3-(4-methylpiperazin-1-yl)-3-oxopropyl)-1H-pyrrol-2-yl)methylene)-5-fluoroindolin-2-one], the inhibition at 1 µM in assay [1] came out at 10.3%; in assay [2], 6.8%. For the same compound, in assay [3], the inhibition at 0.5 µM came out at 21.1%.

For the compound `CCOC(=O)CCc1c(/C=C2\C(=O)Nc3ccc(S(=O)(=O)Cc4c(Cl)cccc4Cl)cc32)[nH]c2c1C(=O)CCC2` [DCB-70209, (Z)-ethyl 3-(2-((5-(2,6-dichlorobenzylsulfonyl)-2-oxoindolin-3-ylidene)methyl)-4-oxo-4,5,6,7-tetrahydro-1H-indol-3-yl)propanoate], the values for the inhibition at 1 µM in assay [1] and in assay [2] were 22.7% and 16.3%, respectively. Besides, in assay [3], the inhibition at 0.5 µM is 92.1%.

For `CCOC(=O)CCc1c(/C=C2\C(=O)Nc3ccc(S(=O)(=O)N4CCc5ccccc54)cc32)[nH]c2c1C(=O)CCC2` [DCB-70210, (Z)-ethyl 3-(2-((5-(indolin-1-ylsulfonyl)-2-oxoindolin-3-ylidene)methyl)-4-oxo-4,5,6,7-tetrahydro-1H-indol-3-yl)propanoate], in assay [1], the IC50 was 100 nM. Further, the inhibition at 1 µM in assay [1] came to 74.6%; in assay [2], 45.5%. The inhibition at 0.5 µM in assay [3] worked out at 75.3%.

In the case of `CCN(CC)CCNC(=O)CCc1c(/C=C2\C(=O)Nc3ccc(S(=O)(=O)Cc4c(Cl)cccc4Cl)cc32)[nH]c(C)c1C(C)=O` [DCB-70212, (Z)-3-(4-acetyl-2-((5-(2,6-dichlorobenzylsulfonyl)-2-oxoindolin-3-ylidene)methyl)-5-methyl-1H-pyrrol-3-yl)-N-(2-(diethylamino)ethyl)propanamide], the inhibition at 1 µM in assay [1] was determined as 3.5%; in assay [2] it was 6.3%. In addition, the inhibition at 0.5 µM in assay [3] came to 95.2%.

As to `CCN(CC)CCNC(=O)CCc1c(/C=C2\C(=O)Nc3ccc(F)cc32)[nH]c(C)c1C(C)=O` [DCB-70213, (Z)-3-(4-acetyl-2-((5-fluoro-2-oxoindolin-3-ylidene)methyl)-5-methyl-1H-pyrrol-3-yl)-N-(2-(diethylamino)ethyl)propanamide], the inhibition at 1 µM in assay [1] was determined as 1%; in assay [2] it was 16.4%. Further, the inhibition at 0.5 µM in assay [3] is 15.5%.

In the case of `CCN(CC)CCNC(=O)CCc1c(/C=C2\C(=O)Nc3ccc(S(=O)(=O)N4CCc5ccccc54)cc32)[nH]c(C)c1C(C)=O` [DCB-70214, (Z)-3-(4-acetyl-2-((5-(indolin-1-ylsulfonyl)-2-oxoindolin-3-ylidene)methyl)-5-methyl-1H-pyrrol-3-yl)-N-(2-(diethylamino)ethyl)propanamide], the inhibition at 1 µM in assay [1] was found to be 15.4%; in assay [2], 14.8%. Besides, the inhibition at 0.5 µM in assay [3] stood at 56.3%.

Regarding `CN1CCN(C(=O)CCc2c(/C=C3\C(=O)Nc4ccc(NS(=O)(=O)c5ccccc5)cc43)[nH]c3c2C(=O)CCC3)CC1` [DCB-70218, (Z)-N-(3-((3-(3-(4-methylpiperazin-1-yl)-3-oxopropyl)-4-oxo-4,5,6,7-tetrahydro-1H-indol-2-yl)methylene)-2-oxoindolin-5-yl)benzenesulfonamide], in assay [1], inhibition was half-maximal at 823 nM (IC50) and the inhibition at 1 µM came to 62%. Further, the inhibition at 1 µM in assay [2] came out at 54.2%. Further, the inhibition at 0.5 µM in assay [3] came to 9.2%.

In the case of `CC(=O)c1c(C)[nH]c(/C=C2\C(=O)Nc3ccc(NS(=O)(=O)c4ccccc4)cc32)c1CCC(=O)N1CCN(C)CC1` [DCB-70219, (Z)-N-(3-((4-acetyl-5-methyl-3-(3-(4-methylpiperazin-1-yl)-3-oxopropyl)-1H-pyrrol-2-yl)methylene)-2-oxoindolin-5-yl)benzenesulfonamide], the values for the inhibition at 1 µM in assay [1] and in assay [2] were 25.7% and 14.8%, respectively. In assay [3], the inhibition at 0.5 µM turned out to be 17.7%.

With `CCN(CC)CCCc1c(/C=C2\C(=O)Nc3ccc(S(=O)(=O)Cc4c(Cl)cccc4Cl)cc32)[nH]c2c1C(=O)CCC2` [DCB-70222, (Z)-5-(2,6-dichlorobenzylsulfonyl)-3-((3-(3-(diethylamino)propyl)-4-oxo-4,5,6,7-tetrahydro-1H-indol-2-yl)methylene)indolin-2-one], the figures for the inhibition at 1 µM in assay [1] and in assay [2] were 95.7% and 83.2%, respectively. For the same compound, the inhibition at 0.5 µM in assay [3] came out at 95.6%.

As usually defined, the inhibition is the drop in the measured response relative to a control, in per cent. In general, IC50 refers to the concentration that inhibits the measured activity by half. High values mean lower potency, low ones higher potency.
